{"source": "patent US9763439B2", "about": "“Method of packaging food” (Universidad de Santiago de Chile, priority 2013, dated 2017)", "origin": "cited, not measured here", "details": "thermoforming process (±140° C.) does not affect its stability", "data": [{"smiles": "C/C=C/C=C/C(=O)[O-].[K+]", "note": "[potassium sorbate]", "values": [{"measurement": "temperature withstood", "result": "up to 270 °C"}]}]}
